The structures appear in SMILES notation. pIC50: −log10 of the molar value. Calls of active or inactive are those of the source. The calls are words filed in the database; no cut-off is given here. Where only a bound is given, the exact number is not on record here.

Drawing on ChEMBL document CHEMBL4308860, “Nature-inspired development of unnatural meroterpenoids as the non-toxic anti-colon cancer agents” (Eur J Med Chem, 2018), this text covers inhibition, Activity and IC50 for 15 compounds.

Data set [1] relates to HT-29. The data set can be described thus: Antiproliferative activity against human HT-29 cells assessed as inhibition of cell proliferation at 25 uM after 72 hrs by MTT assay. The data set is classed as functional. The following applies: HT-29, 72 h.
Data set [2] deals with HT-29. Put plainly: Cytotoxicity against human HT-29 cells assessed as increase in cell death after 72 hrs by Propidium iodide staining-based flow cytometric analysis. The data set is classed as functional. In general terms: Flow cytometry measures light scatter and fluorescence of single cells or particles in a stream.
Data set [3] has as its system HT-29. The data set can be described thus: Down regulation of COX-2 level in human HT-29 cells up to 25 uM after 48 hrs by Western blot analysis. It counts as functional, cell-based. (In general: Immunoblotting shows a protein as a band on a membrane.)
In data set [4] the test system is HT-29. Put plainly: Antiproliferative activity against human HT-29 cells assessed as inhibition of cell proliferation after 72 hrs by MTT assay. It counts as functional, cell-based. The following applies: for pIC50: HT-29, 72 h. On the technique in general: Tetrazolium dyes change colour on reduction, which living cells bring about.
Data set [5] concerns L132. Put plainly: Antiproliferative activity against human L-132 cells up to 25 uM after 72 hrs by MTT assay. It counts as cell-based. The following applies: l132, 72 h.
For data set [6], the system named is HT-29. Put plainly: Cell cycle arrest in human HT-29 cells assessed as accumulation at S phase up to 10 uM after 48 hrs by propidium iodide/RNase staining based flow cytometric analysis. The data set is classed as functional.
For data set [7], the system named is HT-29. The data set can be described thus: Down regulation of survivin level in human HT-29 cells up to 25 uM after 48 hrs by Western blot analysis. The data set is classed as functional, cell-based.
In data set [8] the test system is HT-29. The data set can be described thus: Induction of apoptosis in human HT-29 cells assessed as increase in apoptotic body formation up to 25 uM after 72 hrs by calcein-AM/ethidium homodimer-1 staining-based fluorescence microscopic analysis. It counts as functional, cell-based.
Data set [9] concerns HT-29. The data set can be described thus: Cell cycle arrest in human HT-29 cells assessed as accumulation at S phase up to 7 uM after 48 hrs by propidium iodide/RNase staining based flow cytometric analysis. It counts as functional.
Data set [10] has as its system HT-29. Put plainly: Cytotoxicity against human HT-29 cells assessed as cell death at 50 uM after 72 hrs by Propidium iodide staining-based flow cytometric analysis relative to control. It counts as functional.
In data set [11] the test system is HT-29. The data set can be described thus: Cell cycle arrest in human HT-29 cells assessed as accumulation at G2/M phase up to 15 uM after 48 hrs by propidium iodide/RNase staining based flow cytometric analysis. The data set is classed as functional.
The test system of data set [12] is HT-29. Put plainly: Cell cycle arrest in human HT-29 cells assessed as accumulation at G2/M phase up to 10 uM after 48 hrs by propidium iodide/RNase staining based flow cytometric analysis. The data set is classed as functional.
Data set [13] deals with HT-29. Put plainly: Cell cycle arrest in human HT-29 cells assessed as accumulation at G0/G1 phase up to 5 uM after 48 hrs by propidium iodide/RNase staining based flow cytometric analysis. It counts as functional.
In data set [14] the test system is HT-29. Put plainly: Cell cycle arrest in human HT-29 cells assessed as accumulation at S phase up to 5 uM after 48 hrs by propidium iodide/RNase staining based flow cytometric analysis. The data set is classed as functional.

One may read the inhibition as the drop in the measured response relative to a control, in per cent. `CC1(C)CC[C@@H]2c3cccc(O)c3C[C@]3(C)CCC[C@@H]1[C@H]23`: in [1], the inhibition at 25 µM was 39.1%.
For orientation: pIC50 means −log10 of the IC50, conventionally taken in molar units. Take `CC1(C)CC[C@@H]2c3ccc(O)c(O)c3C[C@]3(C)CCC[C@@H]1[C@H]23`: the Activity result in data set [2] was “Dose-dependent effect”; in [4], “Dose-dependent effect”; in data set [5] it was “Non-Toxic”. Further, the outcome in data set [3], in data set [6] and in [7] was Active. In [4], the pIC50 was 4.78. The inhibition at 25 µM in [1] was 118%.
Regarding `CC1(C)CC[C@@H]2c3ccccc3C[C@]3(C)CCC[C@@H]1[C@H]23`, the inhibition at 25 µM in [1] is 22.4%.
`CC1(C)CC[C@@H]2c3cc(O)c(O)cc3C[C@]3(C)CCC[C@@H]1[C@H]23`: the values for the Activity entry in [2], in data set [4] and in data set [5] were “Dose-dependent effect”, “Dose-dependent effect” and “Non-Toxic”, respectively. Moreover, the result in [3], in data set [8], in [7] and in [9] was Active. The pIC50 in [4] was 5.12. Besides, the inhibition at 25 µM in data set [1] was 142%.
For the compound `COc1ccc(CC2(O)CCC[C@@H]3CCCC[C@@H]32)cc1` (some centres undefined), in data set [1], the inhibition at 25 µM was determined as 0.56%.
As for `CC1(C)CC[C@@H]2c3cc(O)ccc3C[C@@]3(C)[C@@H]2[C@H]1CCC3(C)C`, the Activity result in [2] is “Dose-dependent effect”; in data set [4], “Dose-dependent effect”; in data set [10], over 50%; in [5] it was “Non-Toxic”. Further, the result in data set [3], in data set [11], in data set [8] and in data set [7] was Active. In addition, the pIC50 in data set [4] was 4.82. The inhibition at 25 µM in [1] was 97.5%.
For `CC1(C)CC[C@@H]2c3cc(O)ccc3C[C@]3(C)CCC[C@@H]1[C@H]23`, the Activity result is “Dose-dependent effect” in data set [2], “Dose-dependent effect” in data set [4], over 50% in data set [10] and “Non-Toxic” in [5]. Further, the result in data set [3], in [6] and in data set [7] was Active. For the same compound, the pIC50 in [4] is 4.80. Besides, in [1], the inhibition at 25 µM came to 114%.
Regarding `CC1(C)CC[C@@H]2c3ccc(O)cc3C[C@]3(C)CCC[C@@H]1[C@H]23`, the Activity result was “Dose-dependent effect” in data set [2], “Dose-dependent effect” in data set [4], over 50% in data set [10] and “Non-Toxic” in [5]. Moreover, the pIC50 in data set [4] was 4.69. Further, the outcome in [12] was Active. In addition, the inhibition at 25 µM in data set [1] stood at 112%.
As for `Cc1ccc(C[C@]2(O)CCC[C@H]3C(C)(C)CCC[C@@]32C)cc1`, in data set [1], the inhibition at 25 µM was 13%.
Still for that read-out and setting: the same measure for `CC(C)(C)c1ccc2c(c1)[C@H]1CCC(C)(C)[C@@H]3CCC[C@@](C)(C2)[C@@H]13`: -1.89%.
As for `C[C@@H]1CC[C@@H]2C3=C(C[C@]4(C)CCC[C@@H]1[C@H]24)C(=O)C=CC3=O`, the Activity entry in data set [2] was “Dose-dependent effect”; in data set [4], “Dose-dependent effect”; in data set [10], over 50%; in data set [5] it was “Non-Toxic”. Moreover, the result in data set [3], in data set [13], in [8] and in data set [7] was Active. In data set [4], the pIC50 is 5.10. For the same compound, the inhibition at 25 µM in data set [1] came to 71.8%.
`COc1ccc(C[C@]2(O)CCC[C@H]3C(C)(C)[C@@H](O)CC[C@@]32C)cc1`: the inhibition at 25 µM in data set [1] is -3.48%.
As to `CC1(C)CC[C@@H]2C3=C(C[C@]4(C)CCC[C@@H]1[C@H]24)C(=O)C=CC3=O`, the Activity entry in data set [2] was “Dose-dependent effect”; in [4], “Dose-dependent effect”; in data set [10], over 50%; in data set [5], “Non-Toxic”. Besides, the outcome in [3], in [6] and in [7] was Active. Further, the pIC50 in data set [4] was 4.84. Besides, the inhibition at 25 µM in data set [1] was determined as 124%.
For `C[C@@H]1CC[C@H]2C(C)(C)[C@@H](O)CC[C@]2(C)C1(O)Cc1ccccc1O` (some centres undefined), the inhibition at 25 µM in data set [1] is -1.89%.
Turning to `O=c1[nH]cc(F)c(=O)[nH]1` [FLUOROURACIL], the outcome in [2] was inactive. Moreover, in [4], the Activity entry is “Dose-dependent effect” and the pIC50 is 5.19. Also, the result in [14] was Active. In data set [5], the Activity result is listed as “Non-Toxic”.
